We go through 75 compounds from PubChem BioAssay AID720663 (NMMLSC, 2013).

Each structure is given as a SMILES string. Calls of active or inactive are those of the source.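 How the source made its calls: active means inhibition above 50% of lysosomal marker LAMP-1 reaching the cell surface; inactive means inhibition below 50%.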

The assay deals with TALL-104 cells, LAMP-1 externalization, flow cytometry. In words: inhibitors of lytic granule exocytosis via LAMP-1, confirmation, TALL-104 cells, flow cytometry, CherryPick01 (AID 720663). The note with it: at 30 µM; hits give high values.
In the case of `CC1=NOC(=O)/C1=C/c1ccc(-c2ccc(Cl)cc2)o1`, the inhibition was 84.6%.

As for `CCOC(=O)c1cc(-c2csc(Nc3c(C)cc(C)cc3C)n2)on1`, the inhibition was 70.1%.

For `O=C(OCc1ccccc1)N(CCCCN(CCCNCc1ccccc1)C(=O)OCc1ccccc1)CCCNCc1ccccc1`, the inhibition was 99.5%.

Consider `CCOc1ccc2nc(C)cc(Nc3cccc([N+](=O)[O-])c3)c2c1`, for which the inhibition is 100%.

Regarding `CCCNC(=O)Cn1sc2nc(C)cc(C)c2c1=O`, the inhibition was 41.7% (inactive).

`CCOc1ccccc1CNC(=O)C1CCN(c2nnc(C)c3c(C)n(-c4ccc(C)cc4)nc23)CC1`: the inhibition is 99.6%.

With `Nc1c(C(=O)NCc2ccc(F)cc2)c2nc3ccccc3nc2n1CCCN1CCOCC1`, the inhibition was 58.3%.

For the compound `O=C1C=CC(=O)N1N(c1ccccc1)c1ccccc1`, the inhibition was 45.4% (inactive).

In the case of `CCOC(=O)c1nnc(-c2ccccc2)nc1Sc1ccccc1Cl`, the inhibition is 4.8% (inactive).

As for `OC(CNCC(c1ccc(Cl)cc1Cl)c1c[nH]c2ccccc12)c1ccccc1` (stereo not given), the inhibition is 35.2% (inactive).

Take `Cc1ccc(S(=O)(=O)n2ccc3c(OCCOCCNCc4ccc(F)cc4)cccc32)cc1`: the inhibition is 85%.

Consider `CCc1ccc(/C=C2/Sc3ccccc3N(CC(=O)NCCCN3CCOCC3)C2=O)cc1`, for which the inhibition was 36.6% (inactive).

In the case of `O=S(=O)(c1ccccc1)c1nnn2c1nc(NC1CCN(Cc3ccccc3)CC1)c1cc(Cl)ccc12`, the inhibition was 98.7%.

On to `COC(=O)c1c(NC(=O)c2nc3ccccc3s2)sc2c1CC(C)(C)NC2(C)C`, for which the inhibition was 81.5%.

Consider `CCN(CC)CCCNc1ccc(-c2nnc(-c3ccc(OCC(C)C)cc3)o2)cn1`, for which the inhibition was 87.3%.

With `CN(c1ccccc1)S(=O)(=O)c1cccc(C(=O)NCCc2c[nH]c3ccccc23)c1`, the inhibition was 13.7% (inactive).

On to `CCC(=C(c1ccc(OC)cc1)c1ccc(OC)cc1)c1cn(CC(O)CN2CCN(C)CC2)c2ccccc12` (stereo not given), for which the inhibition is 14.8% (inactive).

In the case of `CCOc1ccc2[nH]c3c(N4CCc5ccccc5C4)ncnc3c2c1`, the inhibition is 5.2% (inactive).

In the case of `N#Cc1c(Nc2ccccc2Cl)s[nH]c1=O`, the inhibition is 95.1%.

Take `COC(=O)c1c(NC(=O)c2ccc(C(=O)c3ccccc3)cc2)sc2c1CC(C)(C)NC2(C)C`: the inhibition was 39.6% (inactive).

Regarding `CCCCC[C@@H](C)N1C[C@@H](COCc2ccccc2)Oc2cc(N3CC[C@@H](N(C)C)C3)ccc2S1(=O)=O`, the inhibition is 95.3%.

On to `CC(=O)Nc1ccc2c(=O)n(-c3ccccc3)sc2c1`, for which the inhibition is 39.8% (inactive).

As to `O=C(Cn1sc2ccccc2c1=O)NC12CC3CC(CC(C3)C1)C2`, the inhibition is 50% (inactive).

For `Cn1cncc1C#Cc1c(-c2ccc(S(C)(=O)=O)cc2)sc2ccccc12`, the inhibition is 17% (inactive).

On to `O=C(Cn1sc2ccccc2c1=O)Nc1ccc(F)cc1`, for which the inhibition is 51.7%.

On to `O=C1Nc2ccc(Br)cc2/C1=C/C(=O)c1ccccc1`, for which the inhibition is 39.4% (inactive).

On to `Cc1ccc(Nc2nc(NCc3ccco3)c3ccccc3n2)cc1`, for which the inhibition is 58.7%.

`Cc1ccc(-n2nnc3c(=O)oc4ccccc4c32)cc1`: the inhibition is 98.8%.

For `COc1ccccc1CNc1nc(NCc2ccc(C(C)C)cc2)c2sccc2n1`, the inhibition is 78.5%.

`CCCCC[C@@H](C)N1C[C@@H](COCc2ccccc2)Oc2cc(N3CC[C@H](N(C)C)C3)ccc2S1(=O)=O`: the inhibition was 95.1%.

Take `COc1ccc(-n2sc3ccccc3c2=O)cc1`: the inhibition is 60.1%.

Regarding `O=c1c2ccc(F)cc2sn1-c1ccccc1`, the inhibition was 77.6%.

Regarding `CN1CCN(CCCNC(=O)c2ccc(/C=C3\Sc4ccccc4N(Cc4ccc(F)cc4)C3=O)cc2)CC1`, the inhibition was 4.5% (inactive).

Regarding `Fc1ccc(/C=C\c2nccc3c2[nH]c2ccccc23)cc1`, the inhibition was 98.7%.

As for `CCCS(=O)(=O)Nc1ccc(Nc2c3ccccc3nc3ccccc23)c(OC)c1`, the inhibition is 99.7%.

Take `CN1CCN(c2cc(-c3ccccc3)nc3cc(-c4ccc(F)cc4)nn23)CC1`: the inhibition was 99.7%.

On to `O=C(Nc1ccc(F)cc1)c1nc(S(=O)(=O)Cc2ccccc2)ncc1Cl`, for which the inhibition was 98.8%.

On to `CCc1ccc2nc(N(CCCN(C)C)C(=O)c3ccc(S(=O)(=O)N4CCc5ccccc5C4)cc3)sc2c1`, for which the inhibition was 97.7%.

`O=CNc1cc(-c2ccsc2)cn2c(-c3ccccc3)cnc12`: the inhibition was 52.6%.

Take `CC1COCC(C)N1C1=C(Cl)C(=O)c2ccccc2C1=O` (stereo not given): the inhibition was 99.7%.

For the compound `CCOc1cc(CNCCc2ccc(S(N)(=O)=O)cc2)ccc1OCc1ccc(Cl)cc1`, the inhibition is 99.8%.

Consider `CC(C)CNC(=O)c1c(N)n(Cc2ccc3c(c2)OCO3)c2nc3ccccc3nc12`, for which the inhibition was 21% (inactive).

On to `COc1cccc(-c2cnc3c(NC(C)=O)cc(-c4ccccc4OC)cn23)c1`, for which the inhibition was 56.1%.

Regarding `CC(C)(c1ccccc1)c1ccc(OCC(O)CNC2CCN(Cc3ccccc3)CC2)cc1` (stereo not given), the inhibition is 97.6%.

In the case of `COc1ccc([N+](=O)[O-])cc1Nc1c2ccccc2nc2ccccc12`, the inhibition is 20.4% (inactive).

As for `O=c1c2ccccc2sn1-c1ccccc1F`, the inhibition is 44% (inactive).

Take `Cc1cc(C)c2nc(C)cc(N/N=C/c3ccc(O)cc3)c2c1`: the inhibition is 100%.

Take `COc1ccc(-c2cc(NC=O)c3ncc(-c4ccccc4)n3c2)cc1OC`: the inhibition was 69.9%.

For the compound `CCCCCCSc1cccc(-c2nc3ccccn3c2NCc2ccccc2)c1`, the inhibition is -0.5% (inactive).

Consider `COc1cccc(-c2cnc3c(NC=O)cc(-c4ccccc4)cn23)c1`, for which the inhibition is 38.8% (inactive).

Consider `CCc1nc2ccc(C(=O)NC3CCN(Cc4ccccc4)CC3)cn2c1N(C)Cc1cc2ccccc2s1`, for which the inhibition is 22.5% (inactive).

Regarding `CN(C)CCNC(=O)c1ccc(-c2cn3c(-c4ccc(Oc5ccccc5)cc4)cnc3cn2)cc1`, the inhibition was 66.8%.

Regarding `COc1ccc(N2C(=O)CC(Sc3nnc(-c4ccccc4)o3)C2=O)cc1` (stereo not given), the inhibition is 92.9%.

As for `COc1cccc(-c2cnc3c(NC(C)=O)cc(-c4ccsc4)cn23)c1`, the inhibition was 53.2%.

Consider `N#Cc1ccc(NC(=O)Nc2ccc(Oc3ccc(NC(=O)Nc4ccc(C#N)cc4)cc3)cc2)cc1`, for which the inhibition was 40.4% (inactive).

For the compound `CN(C)CCCNC(=S)NCC(c1ccc(Cl)cc1Cl)c1c[nH]c2ccccc12` (stereo not given), the inhibition was 24% (inactive).

`COC(=O)[C@]12CCCCC=C1N(Cc1cccc3ccccc13)C(=O)[C@H](CC(=O)NCc1ccc(OC)c(OC)c1)C2`: the inhibition is 15.9% (inactive).

In the case of `O=C(CN1C(=O)/C(=C\c2cccc(Br)c2)Oc2ccccc21)NCCCN1CCOCC1`, the inhibition was 77%.

As for `O=C1CC(Sc2nnnn2-c2ccccc2)C(=O)N1c1cccc(Cl)c1` (stereo not given), the inhibition was 89.1%.

Turning to `COc1ccccc1CNc1nc(NCc2ccc3occc3c2)c2sccc2n1`, the inhibition was 37.5% (inactive).

As for `COc1cccc(NC(=O)Nc2nc(-c3ccc(OC)c(OC)c3)cs2)c1`, the inhibition was 99.6%.

Regarding `CCCCC[C@@H](C)N1C[C@H](COCc2ccccc2)Oc2cc(N3CC[C@@H](N(C)C)C3)ccc2S1(=O)=O`, the inhibition is 93.7%.

On to `O=c1c2ccccc2sn1-c1ccccc1`, for which the inhibition is 79.9%.

For `CCOC(=O)c1c(NC(=O)COc2ccccc2OCC)sc2c1CC(C)(C)NC2(C)C`, the inhibition is 94.7%.

`CC1=C(C)CS(=O)N(S(=O)(=O)c2ccc(Cl)cc2)C1` (stereo not given): the inhibition was 99.5%.

As to `CCOC(=O)c1c(CSc2ccccc2)n(C)c2cc(Br)c(O)c(CN(C)C)c12`, the inhibition was 25.5% (inactive).

As for `CC1(C(=O)OCC(=O)Nc2nc(-c3ccc(F)c(F)c3)cs2)CC1(Cl)Cl` (stereo not given), the inhibition was -10.8% (inactive).

With `Cc1cc(N2CCN(c3nc(-c4ccc([N+](=O)[O-])cc4)cs3)CC2)c2ccccc2n1`, the inhibition is 99.2%.

`CC(=O)Nc1ccc2sn(-c3ccccc3)c(=O)c2c1`: the inhibition is 26.4% (inactive).

Consider `Cn1sc(=O)c2cc(S(=O)(=O)NC3CC3)ccc21`, for which the inhibition is 73.2%.

Regarding `CCOc1ccc2nc(N(CCCN(C)C)C(=O)c3ccc(S(=O)(=O)N4CCc5ccccc5C4)cc3)sc2c1`, the inhibition was 100%.

`CCCCn1c(=N)n(CC(=O)c2ccc(Br)s2)c2ccccc21`: the inhibition is 100%.

For `c1ccc(CNc2nc(NCC3CC3)nc3cc(-c4ccccc4)sc23)cc1`, the inhibition was 97.8%.

`COc1ccc(-c2cc(NC=O)c3ncc(-c4cccc(OC)c4)n3c2)cc1`: the inhibition is 82.8%.

With `COc1cc(-c2coc3c(C(=O)NCc4ccc(OC)c(OC)c4)cccc23)ccc1O`, the inhibition was 29.4% (inactive).
